# Test results published in publication PMC11152041, “Tricarbonyl rhenium(I) complexes with 8-hydroxyquinolines: structural, chemical, antibacterial, and anticancer characteristics” (RSC Advances, 2024).
# Read-outs that look alike come from different tables or passages of the source.
# How the values were obtained:
# E. coli ATCC25922 = experiment: Broth microdilution MIC/MBC (ISO 20776-1); assay type: cell-based, Escherichia coli; settings: Escherichia coli
# [1] = system: solid tumor cells (SKOV-3, PC-3, MCF-7); experiment: MTT cytotoxicity assay, solid tumor cell lines taken together; assay type: cell-based; settings: Homo sapiens, read-out: IC50 against solid tumor cells
# Procedure: For comparison, cisplatin was added to the cytotoxicity assays.
# All experiments were performed in exponentially growing cultures.
# MCF-10A cells = experiment: MTT cytotoxicity assay; settings: Homo sapiens, MCF-10A, read-out: IC50 ± SD
# E. faecalis ATCC29212 = experiment: Broth microdilution MIC/MBC (ISO 20776-1); assay type: cell-based, Enterococcus faecalis; settings: Enterococcus faecalis
# MCF-7 cells = experiment: MTT cytotoxicity assay; assay type: cell-based, human; settings: Homo sapiens, read-out: IC50 ± SD
# HL-60 cells = experiment: MTT cytotoxicity assay; assay type: cell-based, human; settings: Homo sapiens, read-out: IC50 ± SD
# PC-3 cells = experiment: MTT cytotoxicity assay; assay type: cell-based, human; settings: Homo sapiens, read-out: IC50 ± SD
# SKOV-3 cells = experiment: MTT cytotoxicity assay; assay type: cell-based, human; settings: Homo sapiens, read-out: IC50 ± SD
# P. aeruginosa ATCC27853 = experiment: Broth microdilution MIC/MBC (ISO 20776-1); assay type: cell-based, Pseudomonas aeruginosa; settings: Pseudomonas aeruginosa
# S. aureus ATCC29213 = experiment: Broth microdilution MIC/MBC (ISO 20776-1); assay type: cell-based, Staphylococcus aureus; settings: Staphylococcus aureus
# [2] = system: human cervical adenocarcinoma (HeLa) cells; settings: cited from earlier work
SMILES,MBC (E. coli ATCC25922; ATCC25922) [µg/mL],"MIC (E. coli ATCC25922; ATCC25922, 24 h) [µg/mL]",IC50 [1] [µM],IC50 (MCF-10A cells; 24 h) [µM],IC50 (MCF-10A cells; 48 h) [µM],MBC (E. faecalis ATCC29212; ATCC29212) [µg/mL],"MIC (E. faecalis ATCC29212; ATCC29212, 24 h) [µg/mL]","IC50 (MCF-7 cells; MCF7, 24 h) [µM]","IC50 (MCF-7 cells; MCF7, 48 h) [µM]","IC50 (HL-60 cells; HL-60, 24 h) [µM]","IC50 (HL-60 cells; HL-60, 48 h) [µM]","IC50 (PC-3 cells; PC-3, 24 h) [µM]","IC50 (PC-3 cells; PC-3, 48 h) [µM]","IC50 (SKOV-3 cells; SK-OV-3, 24 h) [µM]","IC50 (SKOV-3 cells; SK-OV-3, 48 h) [µM]",MBC (P. aeruginosa ATCC27853; ATCC27853) [µg/mL],"MIC (P. aeruginosa ATCC27853; ATCC27853, 24 h) [µg/mL]",MBC (S. aureus ATCC29213; ATCC29213) [µg/mL],"MIC (S. aureus ATCC29213; ATCC29213, 24 h) [µg/mL]",cytotoxicity [2]
"Cc1ccc2cccc(O)c2n1 [MeHQ, 2-methyl-8-hydroxyquinoline, reference compound]",> 512,32,> 100,> 100,> 100,32,32,> 100,> 100,27 ± 2,18 ± 2,62 ± 8,> 100,> 100,> 100,> 512,256,128,32,
C1N2CN3CN1CP(C2)C3.[C-]#[O+].[C-]#[O+].[C-]#[O+].[Re][O]c1cccc2cccnc12 [[Re(CO)3(Q)(PTA)]],,,,,,,,,,,,,,,,,,,,moderate activity
